Experimental findings from patent US20110059123A1, “Inhibition of the Survival of Colorectal Cancer by Cyclohexenone Compounds from Antrodia Camphorata” (GOLDEN BIOTECHNOLOGY CORPORATION, priority 2009, published 2011) are described below.

The assay concerns colorectal cancer cell line WiDr. The assay can be described thus: In vitro survival assay (MTT) for anti-colorectal cancer effects. It is filed as cell-based. The following applies: WiDr human colon adenocarcinoma cells, 48 hours treatment, survival rate. The procedure:
Inhibiting effects of colorectal cancer cells by cyclohexenone compounds of Antrodia camphorata from example 1 were assessed according to the anticancer-drug screening model of National Cancer Institute (NCI). The compound 4-hydroxy-2,3-dimethoxy-6-methyl-5-(3,7,11-trimethyl-dodeca-2,6,10-trienyl)-cyclohex-2-enone from example 1 was added into the culture media of colorectal cancer cell line WiDr to determine the survival rates. Survival of cell was analyzed using MTT assay. WiDr cell line was a human colon adenocarcinoma cell line.
MTT assay is commonly used to analyze cell proliferation, survival rate of viable cells and cytotoxicity. MTT (3[4,5-dimethylthiazol-2-yl]-2,5-diphenyltetrazolium bromide) is a yellow dye which can be converted to water-insoluble purple formazan on the reductive cleavage of its tetrazolium ring by the succinate tetrazolium reductase in mitochondria of cells. The amount of formazan produced is used to detect the number of viable cells and calculate the survival rates.
The WiDr cells were cultivated in RPMI 1640 medium supplemented with 10% fetal bovine serum, 100 IU/ml of Penicillin and […] of Streptomycin at 37° C., 5% CO2 for 24 hours. Proliferated cells were washed once with PBS, treated with 1× trypsin-EDTA, and centrifuged at 1200 rpm for 5 min. […] The absorbances were measured at 570 nm with an ELISA Reader to determine the survival rates.

Molecule `COC1=C(OC)C(O)C(C/C=C(\C)CC/C=C(\C)CCC=C(C)C)C(C)C1=O` (stereo not shown) [formula 2, 4-hydroxy-2,3-dimethoxy-6-methyl-5-(3,7,11-trimethyl-dodeca-2,6,10-trienyl)-cyclohex-2-enone] had an IC50 of 0.92 µg/mL.

What is called IC50 is the midpoint of a concentration-inhibition curve. Low values mean greater potency, high ones weaker potency.
